Assay results reported in ChEMBL document CHEMBL1201862, “PubChem BioAssay data set” (2004).
The source made the active and inactive calls.

Tests used:
[1] = target: FAD-linked sulfhydryl oxidase ALR (Homo sapiens, UniProt P55789); test: inhibitors of human ALR sulfhydryl oxidase, dose response, biochemical, H2O2 detection, luminescence, cherry-pick (AID 493248)
[2] = target: T1, Protein skinhead-1 (Caenorhabditis elegans, UniProt P34707); type: functional
T1 sequence (P34707 whole entry): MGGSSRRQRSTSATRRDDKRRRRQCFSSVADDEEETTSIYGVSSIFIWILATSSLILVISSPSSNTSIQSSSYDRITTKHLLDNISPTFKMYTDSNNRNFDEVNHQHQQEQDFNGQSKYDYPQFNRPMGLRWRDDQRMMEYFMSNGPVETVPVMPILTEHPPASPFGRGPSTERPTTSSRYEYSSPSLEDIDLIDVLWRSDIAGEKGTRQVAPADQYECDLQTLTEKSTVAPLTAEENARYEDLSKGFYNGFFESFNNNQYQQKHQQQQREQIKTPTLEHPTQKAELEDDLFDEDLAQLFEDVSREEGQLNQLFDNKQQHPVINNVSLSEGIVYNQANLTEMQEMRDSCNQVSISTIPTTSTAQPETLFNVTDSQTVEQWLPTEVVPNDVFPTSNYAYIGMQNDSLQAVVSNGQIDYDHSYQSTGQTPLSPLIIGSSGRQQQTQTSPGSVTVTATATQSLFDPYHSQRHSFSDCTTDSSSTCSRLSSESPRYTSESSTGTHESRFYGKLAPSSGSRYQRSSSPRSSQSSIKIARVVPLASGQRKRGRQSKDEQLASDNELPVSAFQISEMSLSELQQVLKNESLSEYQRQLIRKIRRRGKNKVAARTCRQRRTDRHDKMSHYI

[3] = target: T2, Polyadenylate-binding protein 1 (Homo sapiens, UniProt P11940); test: PABP1 MLLE–PAM2 interaction inhibitors, dose response, miRNA deadenylation inhibitor project, biochemical, fluorescence polarization, Cy5-PAM2 peptide, secondary (AID 602260); type: functional; settings: read-out: IC50_Mean
T2 sequence (P11940 whole entry): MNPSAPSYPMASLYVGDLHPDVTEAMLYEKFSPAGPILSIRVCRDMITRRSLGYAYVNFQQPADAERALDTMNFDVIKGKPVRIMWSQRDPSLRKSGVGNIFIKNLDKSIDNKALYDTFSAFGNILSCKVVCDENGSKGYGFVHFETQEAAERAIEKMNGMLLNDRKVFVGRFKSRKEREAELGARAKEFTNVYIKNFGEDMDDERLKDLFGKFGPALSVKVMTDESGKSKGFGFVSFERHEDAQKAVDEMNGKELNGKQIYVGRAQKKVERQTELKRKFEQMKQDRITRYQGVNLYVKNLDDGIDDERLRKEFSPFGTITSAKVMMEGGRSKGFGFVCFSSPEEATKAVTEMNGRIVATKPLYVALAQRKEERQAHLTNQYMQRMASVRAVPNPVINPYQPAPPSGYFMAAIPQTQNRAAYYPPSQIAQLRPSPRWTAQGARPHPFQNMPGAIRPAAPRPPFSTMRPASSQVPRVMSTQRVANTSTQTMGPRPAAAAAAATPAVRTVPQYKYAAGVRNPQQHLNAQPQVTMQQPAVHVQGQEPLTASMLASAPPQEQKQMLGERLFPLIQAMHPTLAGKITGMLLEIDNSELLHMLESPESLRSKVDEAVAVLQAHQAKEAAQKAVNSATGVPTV

[4] = target: T2, Polyadenylate-binding protein 1; test: PABP1 MLLE–PAM2 binding inhibitor potency, dose response, biochemical, fluorescence polarization, FITC-PAM2 peptide (AID 602259); type: functional; settings: read-out: IC50_Mean
[5] = Shn3 3'UTR reporter inhibitors, dose response, cell-based, Clone20 osteoblasts, firefly luciferase, cherry-picked (AID 624132); type: functional;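 further: firefly luciferase luminescence from reporter carrying the Shn3 3'UTR in osteoblasts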
[6] = HepG2 cell cytotoxicity, dose response, cytotoxicity control for Shn3 inhibitor project, CellTiter-Glo, cherry-picked (AID 624134); type: functional, cell-based
[7] = control 3'UTR Renilla luciferase suppression, dose response, counter-screen for Shn3 inhibitor project, cell-based, Clone20-Shn3RL, cherry-picked (AID 624133); type: functional
[8] = target: Paired box protein Pax-8 (Homo sapiens, UniProt Q06710); test: inhibitors of PAX8-driven TPO luciferase reporter, dose response, RMG-I cells, cherry-pick (AID 687027); type: functional, cell-based;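 further: luciferase reporter driven by Pax8 target thyroperoxidase promoter measured by SteadyGlo luminescence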
Chain of Paired box protein Pax-8 (Q06710 whole entry): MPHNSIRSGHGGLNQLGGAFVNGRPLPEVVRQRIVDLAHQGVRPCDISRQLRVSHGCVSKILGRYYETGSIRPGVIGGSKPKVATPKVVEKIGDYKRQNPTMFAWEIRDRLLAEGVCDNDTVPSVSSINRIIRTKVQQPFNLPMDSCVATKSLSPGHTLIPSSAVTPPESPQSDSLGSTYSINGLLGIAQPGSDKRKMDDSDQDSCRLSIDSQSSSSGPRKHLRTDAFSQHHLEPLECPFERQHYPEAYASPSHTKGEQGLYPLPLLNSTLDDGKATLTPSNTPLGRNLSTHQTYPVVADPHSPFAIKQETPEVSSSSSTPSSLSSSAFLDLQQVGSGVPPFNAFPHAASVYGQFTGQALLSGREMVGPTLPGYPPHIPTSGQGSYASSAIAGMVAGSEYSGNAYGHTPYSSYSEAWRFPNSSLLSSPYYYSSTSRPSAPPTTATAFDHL

[9] = cytotoxicity toward NIH3T3 fibroblasts, dose response, counter-screen, cell-based, ATP luminescence, mouse fibroblasts (AID 2010); type: functional;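 further: cells exposed to compound for about 90 hours before reading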
[10] = inhibitors of intracellular T. cruzi replication, confirmation, NIH3T3 host cells, beta-gal luminescence (AID 2044); type: functional, cell-based;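 further: intracellular parasites grown in NIH/3T3 mouse fibroblasts as host cells; luminescent beta-galactosidase reporter signal from transgenic T. cruzi replicating inside host cells; inhibitors lower the luminescence signal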
[11] = Luminescence Cell-Based Dose Retest to Confirm Inhibitors of Cancer Stem Cells. [Related pubchem assays (depositor defined):AID2717, AID2721]; type: functional; settings: Homo sapiens
[12] = HEp-2 cell cytotoxicity, dose response, cytotoxicity control for RSV inhibitor project, HTS (AID 2410); type: functional; settings: human respiratory syncytial virus
[13] = target: Cytochrome P450 2C9 (Homo sapiens, UniProt P11712)
Chain of Cytochrome P450 2C9 (P11712 whole entry): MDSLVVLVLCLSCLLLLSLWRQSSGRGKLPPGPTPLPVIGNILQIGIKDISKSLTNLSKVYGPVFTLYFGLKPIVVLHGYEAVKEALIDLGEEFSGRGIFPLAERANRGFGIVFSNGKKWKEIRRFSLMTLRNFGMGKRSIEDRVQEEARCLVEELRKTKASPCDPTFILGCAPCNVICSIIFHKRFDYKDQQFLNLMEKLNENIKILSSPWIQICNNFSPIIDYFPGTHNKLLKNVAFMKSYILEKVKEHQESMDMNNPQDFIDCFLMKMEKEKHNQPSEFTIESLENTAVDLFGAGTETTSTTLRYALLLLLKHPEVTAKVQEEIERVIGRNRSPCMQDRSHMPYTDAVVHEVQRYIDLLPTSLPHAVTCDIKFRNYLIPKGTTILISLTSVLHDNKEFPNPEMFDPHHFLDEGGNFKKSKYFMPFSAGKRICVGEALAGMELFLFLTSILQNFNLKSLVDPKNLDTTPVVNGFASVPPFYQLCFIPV

[14] = target: Cytochrome P450 2C19 (Homo sapiens, UniProt P33261); test: Cytochrome panel assay with activity outcomes. Panel member name: p450-cyp2c19 Compounds with AC50 equal or less than 10 uM are considered active; type: functional
Chain of Cytochrome P450 2C19 (P33261 whole entry): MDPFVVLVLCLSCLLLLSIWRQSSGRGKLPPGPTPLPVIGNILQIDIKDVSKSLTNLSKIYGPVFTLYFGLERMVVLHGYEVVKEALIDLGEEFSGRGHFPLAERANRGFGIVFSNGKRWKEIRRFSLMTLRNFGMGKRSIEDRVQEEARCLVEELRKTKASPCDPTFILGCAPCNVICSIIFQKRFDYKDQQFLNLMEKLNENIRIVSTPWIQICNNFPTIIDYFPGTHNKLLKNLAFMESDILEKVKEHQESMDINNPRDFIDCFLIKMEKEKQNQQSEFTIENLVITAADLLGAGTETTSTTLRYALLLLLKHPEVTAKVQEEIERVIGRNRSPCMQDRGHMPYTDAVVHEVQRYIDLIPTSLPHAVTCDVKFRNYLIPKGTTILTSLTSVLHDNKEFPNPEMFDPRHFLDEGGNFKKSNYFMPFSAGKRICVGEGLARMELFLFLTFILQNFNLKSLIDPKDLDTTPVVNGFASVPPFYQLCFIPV

[15] = target: Genome polyprotein (dengue virus type 2, UniProt P29990); test: Dengue-2 NS5 methyltransferase inhibitors, primary screen, biochemical, confirmation dose response (AID 588689); type: functional
Chain of Genome polyprotein (P29990 2492-3391 limits assumed): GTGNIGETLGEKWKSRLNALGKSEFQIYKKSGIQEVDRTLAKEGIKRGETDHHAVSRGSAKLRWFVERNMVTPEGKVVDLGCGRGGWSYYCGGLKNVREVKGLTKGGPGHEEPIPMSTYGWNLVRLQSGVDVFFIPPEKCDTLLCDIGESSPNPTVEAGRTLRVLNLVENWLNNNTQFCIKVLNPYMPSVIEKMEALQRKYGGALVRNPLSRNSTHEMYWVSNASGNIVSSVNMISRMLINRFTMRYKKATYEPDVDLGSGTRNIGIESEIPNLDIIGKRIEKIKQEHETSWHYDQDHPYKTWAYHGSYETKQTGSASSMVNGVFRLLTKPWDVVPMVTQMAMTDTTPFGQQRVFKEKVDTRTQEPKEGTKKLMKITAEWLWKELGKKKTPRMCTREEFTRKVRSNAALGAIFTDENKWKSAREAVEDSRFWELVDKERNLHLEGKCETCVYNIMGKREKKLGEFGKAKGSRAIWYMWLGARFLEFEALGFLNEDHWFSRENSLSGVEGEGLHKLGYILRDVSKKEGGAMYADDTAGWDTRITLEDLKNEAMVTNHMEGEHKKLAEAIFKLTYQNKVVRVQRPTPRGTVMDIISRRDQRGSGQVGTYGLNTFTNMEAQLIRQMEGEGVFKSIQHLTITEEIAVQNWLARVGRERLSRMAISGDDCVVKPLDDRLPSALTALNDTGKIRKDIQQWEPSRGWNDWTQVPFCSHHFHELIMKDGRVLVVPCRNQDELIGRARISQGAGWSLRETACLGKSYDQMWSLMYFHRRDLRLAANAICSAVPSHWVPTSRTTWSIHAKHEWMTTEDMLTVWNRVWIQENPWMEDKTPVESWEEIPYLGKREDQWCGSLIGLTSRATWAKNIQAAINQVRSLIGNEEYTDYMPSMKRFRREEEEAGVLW

[16] = NIH-3T3 fibroblast cytotoxicity, dose response, cytotoxicity control, cell-based, fluorescence, Alamar Blue, secondary assay (AID 2327); type: functional;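 further: NIH-3T3 mouse fibroblasts cultured with fluconazole at 8 µg/mL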
[17] = C. albicans growth with fluconazole, confirmation, fluorescence, retest (AID 2467); type: functional, cell-based
[18] = target: T3, Rac GTPase-activating protein 1 (Homo sapiens, UniProt Q9H0H5); test: MgcRacGAP GTPase-activating activity inhibitors, confirmation, biochemical, ADP Hunter fluorescence, primary and confirmatory (AID 624330); type: functional
T3 sequence (Q9H0H5 whole entry): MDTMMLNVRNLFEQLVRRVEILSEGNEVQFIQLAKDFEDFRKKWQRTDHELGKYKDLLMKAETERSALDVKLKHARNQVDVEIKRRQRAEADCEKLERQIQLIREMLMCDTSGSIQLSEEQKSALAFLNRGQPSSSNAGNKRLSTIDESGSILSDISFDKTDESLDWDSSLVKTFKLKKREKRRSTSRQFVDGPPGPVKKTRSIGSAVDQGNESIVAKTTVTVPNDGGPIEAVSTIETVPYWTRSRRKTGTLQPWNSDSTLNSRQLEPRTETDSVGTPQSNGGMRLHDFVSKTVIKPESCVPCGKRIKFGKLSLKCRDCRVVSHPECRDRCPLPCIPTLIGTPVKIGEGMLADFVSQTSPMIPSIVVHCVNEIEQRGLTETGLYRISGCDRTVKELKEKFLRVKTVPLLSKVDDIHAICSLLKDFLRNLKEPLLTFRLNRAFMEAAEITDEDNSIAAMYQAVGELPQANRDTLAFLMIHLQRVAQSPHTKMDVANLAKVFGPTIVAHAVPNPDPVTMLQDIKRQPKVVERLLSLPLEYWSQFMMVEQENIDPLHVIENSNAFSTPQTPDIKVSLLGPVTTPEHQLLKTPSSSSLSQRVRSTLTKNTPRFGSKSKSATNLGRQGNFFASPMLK

Chain of FAD-linked sulfhydryl oxidase ALR (P55789 whole entry): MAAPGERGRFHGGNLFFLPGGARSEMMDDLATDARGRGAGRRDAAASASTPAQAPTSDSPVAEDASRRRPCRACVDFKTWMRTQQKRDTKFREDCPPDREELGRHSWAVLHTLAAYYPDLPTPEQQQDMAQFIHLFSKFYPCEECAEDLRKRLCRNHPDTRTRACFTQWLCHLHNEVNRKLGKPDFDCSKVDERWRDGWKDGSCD

SMILES: COc1cc(/C=N/Nc2ccccc2)ccc1O
- AC50 [1]: 0.887 µM (active)

SMILES: O=C(Nc1ccc(Cl)cc1)Nc1ccc(Br)cn1
- IC50 [2]: > 100 µM (inactive)

SMILES: Cc1cc(SCNC(=O)c2ccccc2)nc(C(C)C)n1
- IC50 [3]: > 66 µM (inactive)
- IC50 [4]: > 66 µM (inactive)

SMILES: CC(C)c1ccc(NC2CCCN(C(=O)C3=NN(C)C(=O)CC3)C2)cc1 (stereo unspecified)
- AC50 [1]: 27.7 µM (active)

SMILES: Oc1cccc2cc(Nc3ccccc3)cnc12
- AC50 [5]: 0.644 µM (active)
- AC50 [6]: 4 µM (active)
- AC50 [7]: 1.4 µM (active)
- AC50 [8]: 1.37 µM (active)

SMILES: O=C(Nc1cccc(Oc2ccccc2)c1)C1Cc2c(-c3ccc4c(c3)OCO4)ccnc2O1 (stereo unspecified)
- IC50 [2]: > 100 µM (inactive)

SMILES: CCOc1cc(N2CCOCC2)c(OCC)cc1NC(=O)CN1CCC(Cc2ccccc2)CC1
- EC50 [9]: > 60 µM (not active)
- EC50 [10]: 1.36 µM (active)
- AC50 [11]: 2.28 µM (active)

SMILES: O=C(NC(=S)Nc1ccc2c(c1)OCCO2)c1cccc(Br)c1
- IC50 [3]: > 66 µM (inactive)
- IC50 [4]: > 66 µM (inactive)
- CC50 [12]: 34.8 µM (active)

SMILES: O=S(=O)(NC(=S)c1ccccc1)c1ccccc1
- IC50 [3]: > 66 µM (inactive)
- IC50 [4]: > 66 µM (inactive)

SMILES: Cc1nc2cc(NC(=O)CSc3nc4c(C)cccc4cc3C#N)ccc2s1
- AC50 [13]: 3.55 µM (inconclusive)
- AC50 ([14]; read-out: AC50): 0.251 µM (inconclusive)

SMILES: COc1ccc(C(C2C(=O)CC(C)(C)CC2=O)C2C(=O)CC(C)(C)CC2=O)cc1COCC(F)(F)F
- IC50 [15]: 27.7 µM (active)

SMILES: CCc1ccc(NCc2nc(-c3ccccc3)no2)cc1
- IC50 [2]: > 100 µM (inactive)

SMILES: O=C(NCc1ccc(F)c(F)c1)c1ccc(-c2ccc(F)c(F)c2)c2ccoc12
- IC50 [2]: < 3.13 µM (active)

SMILES: Cc1cccc(NC(=O)CSC(N)=O)c1C
- IC50 [3]: > 66 µM (inactive)
- IC50 [4]: > 66 µM (inactive)
- EC50 [16]: > 150 µM (inactive)
- EC50 [17]: > 38 µM (not active)

SMILES: COc1ccc(NC2CCCN(C(=O)c3csc(C(C)C)n3)C2)cc1 (stereo unspecified)
- AC50 [1]: 0.226 µM (active)
- IC50 [18]: 139 µM (active)

SMILES: O=C(O)[C@H]1C[C@]2(C[C@H](C(=O)O)C2)C1 (stereo partly specified)
- AC50 [14]: inconclusive

SMILES: C/C(=N/Nc1ccc(C(=O)O)cc1)c1ccc(O)c(O)c1O
- IC50 [15]: > 100 µM (active)
